According to patent publication US9029414B2, “Triterpenoid compounds and methods of use thereof” (Biotechnology Research Corporation, priority 2008, dated 2015):

How the values were obtained:
[1] = tested on: C57BL/6 mice immunized with MOG; test: Experimental autoimmune encephalomyelitis (EAE) behavioral scores; assay type: in vivo; conditions: 100 mg/kg oral daily from day of immunization
Description: FIG. 15 illustrates that DA001 improves the behavioral scores of mice with experimental autoimmune encephalomyelitis. C57BL/6 mice were immunized subcutaneously at both sides of their hind limbs with myelin oligodendrocyte glycoprotein (MOG)/Complete Freund's Adjuvant (CFA) kit (Hooke Laboratories) and performed as indicated in the manufacturer's instruction. Albumin/CFA kit (Hooke Laboratories) were used as an immunization control. Oral administration of DA001 at 100 mg/kg was given daily starting from the day of immunization. The vehicle (water) was given to mice injected with MOG or albumin daily via oral administration. Animals were weighed and monitored daily and behavioral impairment was quantified based on the clinical scale. The graph presented here is a composite of four separate EAE trials. **=p≦0.01.
FIG. 16 illustrates that DA002 improves the behavioral scores of mice with experimental autoimmune encephalomyelitis. C57BL/6 mice were immunized subcutaneously at both sides of their hind limbs with myelin oligodendrocyte glycoprotein (MOG)/Complete Freund's Adjuvant (CFA) kit (Hooke Laboratories) and performed as indicated in the manufacturer's instruction. […] Animals were weighed and monitored daily and behavioral impairment was quantified based on the clinical scale. *=p≦0.05.
C57BL/6 mice were immunized subcutaneously at both sides of their hind limbs with myelin oligodendrocyte glycoprotein (MOG)/Complete Freund's Adjuvant (CFA) kit (Hooke Laboratories) and performed as in manufacturer's instruction. […] Animals were weighed and monitored daily and behavioral impairment was quantified based on the clinical scale. […]
On day 0, six-week old male C57BL/6 mice (Hong Kong University of Science and Technology, Animal Care facility) were immunized with 100 μg of myelin oligodendrocyte glycoprotein peptide (MOG35-55)/complete Freund's Adjuvant (CFA) emulsion kit (Hooke Laboratories) was injected subcutaneously at both sides of the tail base. […] The animals were also weighed and the neurological impairment was quantified daily based on the previously published criteria. […]

EP4 receptor = EP4 receptor (Homo sapiens, UniProt P35408); test: Radioligand competition binding assay, EP4; conditions: EP4, target PGE2; compound at 10 μM in duplicate; read-out: % inhibition of control specific binding
Description: DA001 was further evaluated against 32 receptor binding assays. Radioligand competition assays were conducted whereby DA001 was tested at one concentration (10 uM) in duplicate. […] It could compete with the radioligand [^3H] PGE2 binding at the EP1 and EP4 receptors, and weakly competed with the EP2 and FP receptors.
To determine the targets of DA compounds, the compound was assessed in binding assays for the family of prostanoid receptors. Both compounds were tested at a single concentration (10 μM) in duplicate. DA001 and DA021 inhibit the ligand binding of prostaglandin E2 receptors EP1, EP2 and EP4 and moderately to prostaglandin (PGF) to its receptor (FP), but not prostaglandin I (PGI2), thromoboxane A and prostaglandin D2 to their receptors.

[2] = tested on: phosphorylated STAT3, STAT4, STAT6 in splenocytes of EAE mice; test: Western blot of phosphorylated STAT proteins in EAE splenocytes; assay type: cell-based; conditions: exogenous 30 μM, MOG 25 μg/mL, splenocytes of vehicle-treated EAE mice
Description: On day 21, EAE mice were sacrificed by cervical dislocation and spleens were removed aseptically. The removed spleens were then cut with sterilized scissors and strained through […] mesh (BD Bioscience) with a plunger of 5 mL syringe (BD Bioscience) in 9 mL of RPMI 1640 (Invitrogen) with 100 U/mL penicillin and 100 μg/mL streptomycin (Sigma). The cell mixture was then added to 9 mL of Lympholyte (Cedarlane Laboratories) for gradient separation of splenocytes from red bloods cells by centrifugation at 1500 g for 20 min. After the centrifugation, the lympholyte layer containing splenocytes were carefully removed and washed with 10 mL of RPMI 1640 at 800 g for 10 min for three times. The isolated splenocytes were seeded onto different plate format and cultured with RPMI 1640 medium (Invitrogen) supplement with 10% heat inactivated fetal bovine serum (Invitrogen) and 100 U/mL penicillin and 100 μg/mL streptomycin at 37° C. CO2 incubator.
Splenocytes of EAE mice were cultured at the density of 1×10^7 cells in 6-well plates (Falcon) and treated with the absence or presence of the MOG peptide (25 μg/mL) (Hooke Laboratories), DA001, and DA021 (30 μM) for 24 h. After overnight incubation, the splenocytes were lysed with RIPA containing antipain dihydrochloride, trypsin inhibitor, leupeptin, aprotinin, sodium orthovanadate, benzamidine and phenyl methane sulphonyl fluoride. After centrifugation at 14000 rpm for 15 min, 4° C., protein concentrations were determined by Dc Protein Assay kit (Bio-Rad). 20 μg of each sample was subjected to 10% SDS-PAGE with 20 mA for 3 h. Immunoblot analysis was performed by transfer of proteins onto nitrocellulose membranes using a mini trans-blot apparatus (Bio-Rad). After 2 h blocking with milk, the membranes were incubated overnight at 4° C. with specific primary Abs (1:1000): anti-phospho-Stat 3 (Cell signaling), anti-phospho-Stat 4 (BD Bioscience), and anti-phospho-Stat 6 (Cell signaling). Anti-α-tubulin (Sigma) was used as a loading control. After washing, subsequent incubation with anti-rabbit or anti-mouse HRP-conjugated secondary antibody (1:3000) (Cell Signaling) for 1 h at room temperature was carried out. The signal was detected by ECL Western blot detection kit (GE Healthcare).
The efficacy of DA compounds in modulating the expression of pro-inflammation proteins was examined. Western blot analysis was performed on cultured splenocytes isolated from the spleen of EAE mice and the expression of signal transducers and activators of transcription (STAT) proteins was examined in response to exogenous treatments of MOG (25 μg/mL), DA001 (30 μM) and DA021 (30 μM). Exogenous addition of MOG [MOG (Ex)] to EAE splenocytes is shown to robustly increase the phosphorylation of STAT3, STAT4, and STAT6.
Western blot analysis was performed as described in the methodology.

Chain of EP4 receptor (P35408 whole entry): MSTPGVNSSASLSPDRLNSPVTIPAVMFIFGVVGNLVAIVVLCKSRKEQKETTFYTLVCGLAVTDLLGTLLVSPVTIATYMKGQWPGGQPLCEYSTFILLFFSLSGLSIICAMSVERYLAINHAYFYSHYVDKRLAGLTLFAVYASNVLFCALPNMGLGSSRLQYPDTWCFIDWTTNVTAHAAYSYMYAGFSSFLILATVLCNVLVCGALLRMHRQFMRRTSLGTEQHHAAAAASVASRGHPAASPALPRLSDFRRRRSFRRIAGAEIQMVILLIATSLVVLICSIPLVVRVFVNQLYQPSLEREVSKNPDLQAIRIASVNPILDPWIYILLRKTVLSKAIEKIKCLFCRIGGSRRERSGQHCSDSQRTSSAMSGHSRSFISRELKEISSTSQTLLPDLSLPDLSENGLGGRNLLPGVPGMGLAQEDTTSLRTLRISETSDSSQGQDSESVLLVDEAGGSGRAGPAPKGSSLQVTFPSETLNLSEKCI

Row | Structure (SMILES) | EAE scores vs vehicle-treated EAE mice [1] | inhibition at 10 µM (EP4 receptor) | MOG-induced STAT3 phosphorylation [2] | MOG-induced STAT4 phosphorylation [2] | STAT6 phosphorylation [2]
1 | C=C(C)[C@@H]1CC[C@]2(C(=O)O)CC[C@]3(C)C(CC[C@@H]4[C@@]5(C)CC[C@H](O[C@@H]6OC[C@H](O)[C@H](O)[C@H]6O[C@@H]6O[C@@H](C)[C@H](O)[C@@H](O)[C@H]6O)[C@@](C)(CO)[C@@H]5CC[C@]43C)[C@@H]12 (stereo partly drawn) [DA001, 3-O-[α-L-rhamnopyranosyl-(1→2)-α-L-arabinopyranosyl]-3,23-dihydroxy-20(29)-lupen-28-oic acid] | marked decrease in EAE scores | 49% | significantly decreased | significantly decreased | 
2 | C=C(C)[C@@H]1CC[C@]2(/C=N/O)CC[C@]3(C)C(CCC4[C@@]5(C)CCC(=O)[C@@](C)(CO)[C@@H]5CC[C@]43C)C12 (stereo partly drawn) [DA021] | marked decrease in the EAE scores | 36% | significantly decreased | significantly decreased | marked decrease
